{"source": "patent US6005008A", "about": "“IL-8 receptor antagonists” (SmithKline Beecham Corporation, priority 1997, dated 1999)", "target": "T1, recombinant IL-8 Rβ, or Type II, receptor (Homo sapiens, UniProt P25025)", "T1 sequence (P25025 1-360)": "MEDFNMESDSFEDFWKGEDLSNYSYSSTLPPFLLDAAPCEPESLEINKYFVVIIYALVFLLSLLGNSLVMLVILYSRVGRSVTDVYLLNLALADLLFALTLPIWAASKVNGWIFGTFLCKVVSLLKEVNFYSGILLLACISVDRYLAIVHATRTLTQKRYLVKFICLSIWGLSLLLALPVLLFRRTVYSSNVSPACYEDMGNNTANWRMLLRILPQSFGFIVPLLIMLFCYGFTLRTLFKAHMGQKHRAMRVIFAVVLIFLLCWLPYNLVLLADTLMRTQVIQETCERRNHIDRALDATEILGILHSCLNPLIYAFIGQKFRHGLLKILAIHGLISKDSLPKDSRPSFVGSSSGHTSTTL", "assay": "Receptor binding assay, 125I IL-8, IL-8Rβ CHO membranes (permissive model)", "text": "[^125 I] IL-8 (human recombinant) was obtained from Amersham Corp., Arlington Heights, Ill., with specific activity 2000 Ci/mmol. Gro-α was obtained from NEN-New England Nuclear. All other chemicals were of analytical grade. High levels of recombinant human IL-8 type α and β receptors were individually expressed in Chinese hamster ovary cells as described previously (Holmes, et al., Science, 1991, 253, 1278). The Chinese hamster ovary membranes were homogenized according to a previously described protocol (Haour, et al., J Biol Chem., 249 pp 2195-2205 (1974)). Except that the homogenization buffer was changed to 10 mM Tris-HCL, 1 mM MgS04, 0.5 mM EDTA (ethylene-diaminetetra-acetic acid), 1 mMPMSF (α-toluenesulphonyl fluoride), 0.5 mg/L Leupeptin, pH 7.5. Membrane protein concentration was determined using Pierce Co. micro-assay kit using bovine serum albumin as a standard. All assays were performed in a 96-well micro plate format. Each reaction mixture contained ^125 I IL-8 (0.25 nM) or ^125 I Gro-α and 0.5 μg/mL of IL-8Rα or 1.0 μg/mL or IL-8Rβ membranes in 20 mM Bis-Trispropane and 0.4 mM Tris HCl buffers, pH 8.0, containing 1.2 mM MgSO4, 0.1 mM EDTA, 25 mM NaCl and 0.03% CHAPS. […] The filter was then dried and counted on the Betaplate liquid scintillation counter. […]"}
{"smiles": "Cc1cc(Cl)ccc1NC(=O)Nc1ccccc1C(=O)O", "note": "[1-(2-Carboxyphenyl)-3-(4-chloro-2-methylphenyl)urea]", "values": [{"measurement": "found to be active at (IL-8 receptor inhibition)", "result": "about 75 μg/mL"}]}
